# Laboratory results from patent US12285446B2, “Compositions and methods for improving mitochondrial function” (priority 2018, dated 2025).
# What was measured:
# [1] = system: UbV-gfp; experiment: UbV-gfp reporter; design: species or system Caenorhabditis elegans; conditions: in vivo
# Method: To address how Gluconacetobacter spp feeding improves mitochondrial function, a variety of transgenic worm strains were tested, including worms that carry a construct encoding a fusion protein comprising a GFP reporter protein and a gene product that is involved in stress response, mitochondrial activity, peroxisomal function, innate immune response, and different signaling pathways (Table 1; FIGS. 2C-2K; FIGS. 6C-6L; FIGS. 7A-7D).
# [2] = system: phsp-6::gfp induced by human Aβ1-42; experiment: phsp-6::gfp UPRmt reporter in worms with panneuronal human Aβ1-42; assay type: in vivo, Caenorhabditis elegans; conditions: compound treatment
# Method: Thus, it is possible to screen for interventions that will reduce the UPRmt induction by modulating the Aβ aggregation or toxicity of Aβ on mitochondria.
# For the screen, thirty microbial strains including the negative control bacteria E. coli OP50 were grown in appropriate culture media conditions and spotted onto standard nematode growth medium plates. ˜30 synchronized L1-larval-stage transgenic worm expressing Aβ 1-42 or tau in the pan-neurons were dropped onto the seeded plates and scored visually after 4 days under a fluorescent microscope for changes in phsp-6::gfp expression (FIG. 13).
Structure (SMILES),UbV-gfp expression [1],induction of UPRmt (phsp-6::gfp) in Aβ worms treated with compound [2]
CC(C)C[C@H](NC(=O)[C@H](Cc1ccccc1)NC(=O)c1cnccn1)B(O)O [Bortezomib],stabilizes UbV-gfp,–
Cc1ccc2c(c1)sc(-c1ccc(N(C)C)cc1)[n+]2C.[Cl-] [Thioflavin T],–,induction of UPRmt was reduced
